From ChEMBL document CHEMBL4483862, “Open-source discovery of chemical leads for next-generation chemoprotective antimalarials” (2018) come the findings set out here.

One may read the IC50 as the concentration needed to halve the response being measured. What is called IC90 is the concentration at which the effect reaches the 90% level.

In the test the test system is Plasmodium berghei. Nature of the test: Luciferase/luciferin-expressing antifolate-resistant parasites were used to infect a culture of HepG2 cells that were pre-incubated with compounds. Infected hepatocytes emit light due to the luciferase reaction. Assay results are presented as the percent inhibition of light emission compared to control. […]. The format is functional. The note with it: sporozoite; for IC90: read-out: LUCIFERASE INFECTION ASSAY - IC90.

Where [1] appears, read: read-out: LUCIFERASE INFECTION ASSAY - IC50.

Structures are written as SMILES. A value given as a limit tells only on which side of the number the result lay.

As for `CCN1CCN(c2ccc(Cl)cc2NC(=O)c2sc(-c3ccccc3)nc2C)CC1`, the concentration for an effect of 90% (IC90) was determined as 4.23 µM. Moreover, the IC50 (PBLUC_HILL_SLOPE 12.2, PBLUC_R_SQUARED 0.286, read-out: LUCIFERASE INFECTION ASSAY - IC50) turned out to be 3.53 µM.
Turning to `Cn1nc(-c2ccc(/C=N/NC(=O)c3ccc(Cl)cc3Cl)s2)cc1C(F)(F)F`, the IC90 is over 7.38 µM. For the same compound, the IC50 under setting [1] is over 7.38 µM.
In the case of `Oc1c(Br)cc(Cl)cc1/C=N/NC(=S)NC1CC1`, the concentration for an effect of 90% (IC90) is over 9.47 µM. Also, the half-inhibitory concentration (IC50) (PBLUC_HILL_SLOPE 2.42, PBLUC_R_SQUARED 0.376, read-out: LUCIFERASE INFECTION ASSAY - IC50) came out at 4.15 µM.
For the compound `Cc1nc(SCc2cccc(S(=O)(=O)N(C)C)c2)c2ccccc2n1`, the 90% effect concentration (IC90) is over 10 µM. Moreover, the half-inhibitory concentration (IC50) (HEPG2TOX_HILL_SLOPE 2.7, HEPG2TOX_R_SQUARED 0.556, read-out: LUCIFERASE INFECTION ASSAY - IC50) is over 10 µM.
As to `CSc1nnnn1-c1cccc(NC(=O)c2cc(-c3cc(C)oc3C)nc3c2cnn3C(C)C)c1`, the IC90 is over 10 µM. Moreover, under “FFLUC_HILL_SLOPE 1.52, FFLUC_R_SQUARED 0.0983, PBLUC_HILL_SLOPE 1.97, PBLUC_R_SQUARED 0.288, read-out: LUCIFERASE INFECTION ASSAY - IC50”, the IC50 is 5.3 µM.
`Cn1c(N)c(C(=O)COC(=O)c2oc3ccccc3c2CSC2CCCCC2)c(=O)n(C)c1=O`: the concentration for an effect of 90% (IC90) is over 10 µM. The IC50 under setting [1] was over 10 µM.
As to `c1cc(NCCN2CCOCC2)ncc1-c1cn2c(-c3ccc4c(c3)OCO4)cnc2cn1`, the IC90 is over 7.42 µM. The IC50 under setting [1] is over 7.42 µM.
As for `COc1ccccc1-c1cc(-c2cccc(C(F)(F)F)c2)cnc1N`, the 90% effect concentration (IC90) was over 9.58 µM. Besides, where the note is “HEPG2TOX_HILL_SLOPE 7.68, HEPG2TOX_R_SQUARED 0.737, read-out: LUCIFERASE INFECTION ASSAY - IC50”, the half-inhibitory concentration (IC50) was over 9.58 µM.
`CCC(C)(C)c1ccc(Oc2ccc(NC(=O)COC(=O)C3=COCCO3)cc2)cc1`: the IC90 is over 10 µM. For the setting “PBLUC_HILL_SLOPE 2.38, PBLUC_R_SQUARED 0.497, read-out: LUCIFERASE INFECTION ASSAY - IC50”, the half-maximal inhibitory concentration (IC50) was 5.8 µM.
Consider `COc1ccc(-c2csc3ncnc(NC4CCN(CC(N)=O)CC4)c23)cc1`, for which the 90% effect concentration (IC90) stood at 8.68 µM. Moreover, the IC50 under setting [1] amounted to 5.11 µM.
Consider `Cc1cccc2sc(NC(=O)c3cccc(S(=O)(=O)N4CCc5ccccc54)c3)nc12`, for which the concentration for an effect of 90% (IC90) is over 10 µM. Further, the IC50 under setting [1] was over 10 µM.
For the compound `CCNc1nnc(SCc2nc(-c3cccs3)no2)s1`, the IC90 was over 10 µM. Also, under setting [1], the IC50 was over 10 µM.
As to `O=C1CN(CC(=O)N2N=C(c3ccc4ccccc4c3)CC2c2ccccc2)c2ccccc2N1` (stereo not drawn), the concentration for an effect of 90% (IC90) is over 10 µM. The IC50 (PBLUC_HILL_SLOPE 15.5, PBLUC_R_SQUARED 0.336, read-out: LUCIFERASE INFECTION ASSAY - IC50) came out at 9.53 µM.
With `OC1CCN(c2nn3cc(-c4ccccc4)nc3s2)CC1`, the IC90 worked out at 0.954 µM. In addition, under “FFLUC_HILL_SLOPE 1.04, FFLUC_R_SQUARED 0.865, PBLUC_HILL_SLOPE 0.617, PBLUC_R_SQUARED 0.864, read-out: LUCIFERASE INFECTION ASSAY - IC50”, the 50% inhibitory concentration (IC50) was 0.0272 µM.
Consider `Cc1nn(CC(=O)NNC(=O)CC23CC4CC(CC(C4)C2)C3)c(=O)c2ccccc12`, for which the IC90 came out at 6.96 µM. The IC50 (PBLUC_HILL_SLOPE 1.76, PBLUC_R_SQUARED 0.72, read-out: LUCIFERASE INFECTION ASSAY - IC50) turned out to be 2 µM.
As to `COc1ccc(NC(C(=O)Nc2cccc(C(F)(F)F)c2)c2ccccc2)cc1OC` (stereo not drawn), the concentration for an effect of 90% (IC90) is over 10 µM. The half-inhibitory concentration (IC50) (PBLUC_HILL_SLOPE 1.54, PBLUC_R_SQUARED 0.609, read-out: LUCIFERASE INFECTION ASSAY - IC50) amounted to 5.09 µM.
With `N#C/C(=C\Nc1cccc([N+](=O)[O-])c1)S(=O)(=O)c1ccc(Cl)cc1`, the IC90 is over 9.07 µM. Further, under setting [1], the IC50 is over 9.07 µM.
For the compound `CCCCOc1ccc(CN2CCN(CC(=O)NC)CC2)cc1OCC`, the IC90 is over 10 µM. Further, the IC50 under setting [1] is over 10 µM.
On to `CC(c1ccc(-c2ccccc2)c(F)c1)c1nn2c(-c3ccco3)nnc2s1` (stereo not drawn), for which the IC90 is 2.45 µM. For the same compound, under setting [1], the IC50 was 0.85 µM.
As for `c1ccc(C(Sc2ncnc3sccc23)c2ccccc2)cc1`, the concentration for an effect of 90% (IC90) is over 10 µM. In addition, the IC50 under setting [1] was over 10 µM.
For `Clc1ccc(-c2csc3ncnc(Sc4nnc(N5CCOCC5)n4C4CC4)c23)cc1`, the IC90 was over 10 µM. For the same compound, the half-maximal inhibitory concentration (IC50) (PBLUC_HILL_SLOPE 1.69, PBLUC_R_SQUARED 0.173, read-out: LUCIFERASE INFECTION ASSAY - IC50) was 7.1 µM.
Turning to `O=C(Nc1cccc(C#Cc2ccccc2)c1)c1ccoc1`, the concentration for an effect of 90% (IC90) is over 10 µM. In addition, the IC50 under setting [1] is over 10 µM.
For `COc1ccc(OCc2noc(CN3CCc4ccccc43)n2)cc1`, the 90% effect concentration (IC90) is over 2 µM. Besides, under setting [1], the IC50 is over 2 µM.
On to `O=C(Nc1cccc(S(=O)(=O)NC2=NCCC2)c1)c1ccc2nccnc2c1`, for which the concentration for an effect of 90% (IC90) was over 10 µM. The IC50 under setting [1] is over 10 µM.
On to `CCCN1CCN(c2c3ccc(Cl)cc3nc3ccc(OC)cc23)CC1`, for which the 90% effect concentration (IC90) was over 10 µM. Also, the half-inhibitory concentration (IC50) under setting [1] was over 10 µM.
In the case of `S=C(Nc1ccc(C2=NCCO2)cc1)Nc1ccc(Cl)c(Cl)c1`, the IC90 was over 9.01 µM. The IC50 under setting [1] was over 9.01 µM.
As to `CCOc1ccc(C(C)NC(=O)c2nc(SC)ncc2Cl)cc1` (stereo not drawn), the IC90 was 4.29 µM. The IC50 (HEPG2TOX_HILL_SLOPE 16.5, HEPG2TOX_R_SQUARED 0.52, PBLUC_HILL_SLOPE 11.3, PBLUC_R_SQUARED 0.138, read-out: LUCIFERASE INFECTION ASSAY - IC50) worked out at 3.53 µM.
As to `CCCn1c(SCc2ccccc2F)n[nH]c1=O`, the IC90 was over 10 µM. Further, the IC50 under setting [1] was over 10 µM.
On to `CN(C)C(=O)C1CCCN1c1ccc(C(=O)c2ccccc2)cc1[N+](=O)[O-]` (stereo not drawn), for which the 90% effect concentration (IC90) was over 10 µM. Moreover, the IC50 (HEPG2TOX_HILL_SLOPE 1.22, HEPG2TOX_R_SQUARED 0.897, PBLUC_HILL_SLOPE 2.78, PBLUC_R_SQUARED 0.507, read-out: LUCIFERASE INFECTION ASSAY - IC50) stood at 6.2 µM.
Take `O=C(Nc1ccc(Cl)cc1)Nc1nc(-c2cc(Cl)sc2Cl)cs1`: the IC90 turned out to be 7.79 µM. Further, the IC50 (FFLUC_HILL_SLOPE 2.44, FFLUC_R_SQUARED 0.604, PBLUC_HILL_SLOPE 2.52, PBLUC_R_SQUARED 0.549, read-out: LUCIFERASE INFECTION ASSAY - IC50) is 3.26 µM.
Turning to `CC(C)=CC(=O)NC(c1ccccc1)c1ccc(Cl)cc1` (stereo not drawn), the IC90 was over 10 µM. Further, under setting [1], the 50% inhibitory concentration (IC50) was over 10 µM.
Regarding `COc1ccc(Cc2nnc(S)n2NC(=O)Nc2ccc(Cl)c(Cl)c2)cc1`, the IC90 is over 10 µM. Under setting [1], the IC50 was over 10 µM.
For `Cn1c(Cc2ccccc2)nc2cnc(Nc3cccc(C(F)(F)F)c3)cc21`, the concentration for an effect of 90% (IC90) is over 10 µM. For the same compound, the IC50 under setting [1] is over 10 µM.
With `O=C(Nc1ccc(Cl)cc1)OCc1nccn1Cc1ccc(Cl)cc1`, the concentration for an effect of 90% (IC90) was over 8.77 µM. In addition, the 50% inhibitory concentration (IC50) (PBLUC_HILL_SLOPE 0.184, PBLUC_R_SQUARED 0.0602, read-out: LUCIFERASE INFECTION ASSAY - IC50) was over 8.77 µM.
With `CC(NC(=O)c1cccc(Nc2ncccn2)c1)c1cccc(C(F)(F)F)c1` (stereo not drawn), the 90% effect concentration (IC90) came to 6.34 µM. Under setting [1], the IC50 was determined as 0.729 µM.
Regarding `C=CCn1c(SCc2ccccn2)nc2sccc2c1=O`, the IC90 is over 10 µM. In addition, the concentration for half-maximal inhibition (IC50) (HEPG2TOX_HILL_SLOPE 8.76, HEPG2TOX_R_SQUARED 0.722, PBLUC_HILL_SLOPE 2.66, PBLUC_R_SQUARED 0.469, read-out: LUCIFERASE INFECTION ASSAY - IC50) worked out at 8.34 µM.
With `COc1ccc(CCC(=O)NCc2cc(=O)n(C)c(=O)n2C)cc1`, the IC90 is over 9.96 µM. Under setting [1], the IC50 was over 9.96 µM.
In the case of `CC(C)(O)C#Cc1ccc(/C=N/Nc2cccc(C(F)(F)F)n2)cc1`, the IC90 came to 6.05 µM. For the same compound, where the note is “PBLUC_HILL_SLOPE 6.25, PBLUC_R_SQUARED 0.631, read-out: LUCIFERASE INFECTION ASSAY - IC50”, the IC50 was found to be 4.26 µM.
`CCCNc1ccc2ncc(-c3ccc(OC)c(OC)c3)n2n1`: the IC90 was 2.73 µM. Besides, the IC50 (HEPG2TOX_HILL_SLOPE 2.36, HEPG2TOX_R_SQUARED 0.919, PBLUC_HILL_SLOPE 2.02, PBLUC_R_SQUARED 0.782, read-out: LUCIFERASE INFECTION ASSAY - IC50) stood at 0.918 µM.
As to `CC(C)Cc1ccc(C(=O)CC(Sc2ccccc2N)c2cccc([N+](=O)[O-])c2)cc1` (stereo not drawn), the IC90 is 2.86 µM. Besides, under “FFLUC_HILL_SLOPE 39.9, FFLUC_R_SQUARED 0.525, PBLUC_HILL_SLOPE 1.28, PBLUC_R_SQUARED 0.727, read-out: LUCIFERASE INFECTION ASSAY - IC50”, the half-maximal inhibitory concentration (IC50) was 0.511 µM.
For the compound `CNc1nc2cnc(Nc3ccccc3)cc2n1Cc1ccco1`, the IC90 was over 10 µM. Further, the 50% inhibitory concentration (IC50) (HEPG2TOX_HILL_SLOPE 3.53, HEPG2TOX_R_SQUARED 0.949, PBLUC_HILL_SLOPE 2.74, PBLUC_R_SQUARED 0.404, read-out: LUCIFERASE INFECTION ASSAY - IC50) came to 4.93 µM.
Turning to `c1ccc(-c2cc3c(NCc4ccccc4CN4CCOCC4)ncnc3s2)cc1`, the IC90 is over 10 µM. In addition, the IC50 under setting [1] is over 10 µM.
Consider `COc1ccccc1-n1nnnc1SCC(O)Cn1c2ccccc2c2ccccc21` (stereo not drawn), for which the IC90 is over 10 µM. In addition, for the setting “FFLUC_HILL_SLOPE 2.23, FFLUC_R_SQUARED 0.596, PBLUC_HILL_SLOPE 13.3, PBLUC_R_SQUARED 0.223, read-out: LUCIFERASE INFECTION ASSAY - IC50”, the IC50 was found to be 9.95 µM.
Consider `C=CCNC(=S)N1N=C2/C(=C/c3ccc(OCC)cc3)CCCC2C1c1ccc(OCC)cc1` (stereo not drawn), for which the IC90 was over 10 µM. Where the note is “HEPG2TOX_HILL_SLOPE 0.856, HEPG2TOX_R_SQUARED 0.318, PBLUC_HILL_SLOPE 2.55, PBLUC_R_SQUARED 0.497, read-out: LUCIFERASE INFECTION ASSAY - IC50”, the concentration for half-maximal inhibition (IC50) turned out to be 4.45 µM.
